Tests used:
Wistar rats [1] = test: Antidiabetic activity by starch loaded model; assay type: in vivo, rat; conditions: test compounds 100 mg/kg, Acarbose 10 mg/kg oral
Text: Experimental Animals—Wistar rats of either sex were used for the present study. Animals selected for use in the study were of uniform age and body weight. A minimum of 40 rats, from which eventually 20 rats were selected. Their body weights were in the range of 150-180 gm. The health status of the animals was ascertained by a veterinary surgeon. […] Animals were acclimatized for at least two weeks prior to start of the study. The animals were provided with pellet diet manufactured by NIN, HYDERABAD, India and drinking water adlibitum.
Compound Preparation The required quantity of the synthetic compounds were weighed and made suspension with gum acacia (2%). The test compounds were administered to all rats by per oral route. Acarbose suspension was also prepared in gum acasia suspension and given by oral route.
Antidiabetic activity by Starch model: The method of Rao et al., 2009;Tiwari et al was employed. Animals were fasted over night (12 hrs). Basal blood glucose levels were estimated for all the animals prior to dosing in test and standard groups. This was designated as “0” min reading. […] After test compounds administration animals in all three groups received Starch aqueous solution (2 gm/kg body weight). Blood glucose levels were monitored at 30, 60, 90 and 120 min after the administration of Starch in all the three groups. The percentage of increase in, blood glucose levels was calculated with respect to the control group at each time point.

Wistar rats [2] = test: Carrageenan induced paw edema model; assay type: in vivo, rat; conditions: Rattus norvegicus, po, 3 h
Description: Male Albino Wistar rats of 150-180 grams were used for the experiments.
Anti-inflammatory activity of test compounds was evaluated in Wistar rats employing the method of Winter et al (1963) and Diwan et al (1989). Male Wistar rats were used for the study. […] The different test compounds were administered to the animals in the test group at the dose of 100 mg/kg, by oral route. Animals in the standard group received Indomethacin at the dose of 10 mg/kg, by oral route. All test and standard compounds were administered as 1% gum acacia suspension. Rats in the control group received the vehicle solution without drugs. One hour after test drugs administration, rats in all the groups were challenged with 0.1 ml of 1% Carrageenan in the sub plantar region of right hind paw. A zero hour paw volume was measured for all the rats using digital plethysmometer (Ugo Basile, Italy) before the administration of carrageenan for all groups. Paw volumes were again measured 3 hrs after the challenge of Carrageenan. The percent inhibition of paw volume for each rat in treated groups was calculated by comparing with mean paw volume of control group and expressed as mean (±SE) percent inhibition of paw volume for each test. In a preliminary study the compounds that have shown good activity were evaluated for dose response study by using above procedure.

mice = test: Adenosine mediated bronchoconstriction and lung inflammation in an allergic mouse model; assay type: in vivo; set-up: Total count: unit not given here; conditions: BAL fluid cells; 100 mg/kg oral
Description: Thienopyridines were proven as potent cytotoxic and anti-inflammatory agents in the previous experimental results. In cytotoxic MTT assay, activity of these molecules may be due to the involvement of adenosine receptors. Further, to find the bronchodilatory activity of these moieties and to find the involvement of adenosine receptors in their action, non-invasive and invasive adenosine mediated bronchoconstriction and lung inflammation in an allergic mouse model was performed.
Male mice, 6-8 weeks of age, free of specific pathogens were obtained from National Institute of Nutrition. The animals were maintained on a ragweed-free diet. All experimental protocols used in this study were under a protocol approved by animal ethical committee. Sensitization was performed according to the modified procedure described by Fan et al, 2002. Mice were sensitized on days 1 and 6 with i.p. injections of ragweed allergen (200 μg/200 μl of water for injection). Non-sensitized control animals received only water for injection with the same volumes. Ten days after sensitization, the mice were placed in plexiglas chamber and challenged with 0.5% ragweed or with 0.9% saline as a control for twenty minutes both in the morning and evening for three days. Then mice were divided into different groups consisting of six animals each. The groups including a control without sensitization; a sensitized group and a standard group along with groups of the test molecules were separated. Twenty-four hours after last challenge with ragweed, the mice were given an oral dose of test molecules and theophylline (100 mg/kg body weight) as acacia suspension. Two hours after administration of the oral dose, the mice were challenged with adenosine solution (24 mg/ml). The variation in respiration was recorded after anaesthetizing them with pentobarbitone sodium (0.1 ml 200 mg/ml ip) using kymograph. Then, mice were sacrificed and trachea was cannulated to collect the bronchoalveolar lavage fluid. This was performed by pumping 1 ml phosphate buffered saline into lungs through tracheal cannula and collecting the sample. Analysis of BAL fluid was performed to get the cellular differentials. The BAL fluid was centrifugated at 1500 rpm for six minutes at room temparature. After removing the supernatant, BAL cells were resuspended in 1 ml of phosphate buffered saline. Total cells were then counted manually in a hemocytometer chamber. A differential count of at least 300 cells was made according to the standard morphologic criteria and results were mentioned in table.

yeast α-glucosidase = target: T1, yeast α-glucosidase (Saccharomyces cerevisiae, UniProt P53341); test: In-vitro yeast α-glucosidase inhibition assay; assay type: biochemical, bakers yeast
T1 construct: α-Glucosidase [(EC 3.2.1.20) Type I: from bakers yeast]
Text: (§1) Chemicals: α-Glucosidase [(EC 3.2.1.20) Type I: from bakers yeast], rat intestinal acetone powder (as a source of crude intestinal α-glucosidase), α-amylase [EC 3.2.1.1) Type VI B: from porcine pancreas], p-nitrophenyl α-D-glucopyranoside, 3,5-dinitro salicylic acid, soluble potato starch and 1-deoxyrojirimycine, were purchased from Sigma Chemical Co., St Louis, Mo., USA. Other chemicals of analytical grade were procured from indigenous manufacturers.
(§2) In-vitro a-Glucosidase Inhibition Assay: Yeast and intestinal a-glucosidase inhibitory activities were determined as per reported methods (Babu et al., 2004; Mc Dougall et al., 2005). Rat intestinal acetone powder in normal saline (100% w/v) was sonicated properly and the supernatant was used as a source of crude intestinal a-glucosidase after centrifugation. In brief, 20 μl, of test samples (100 mg/ml DMSO solution) were reconstituted in 100 μl of 100 mM-Phosphate buffer (pH 6.8) in a 96-well microplate and incubated with 50 μl yeast a-glucosidase (0.76 μ/ml in same buffer) or crude intestinal a-glucosidase for 5 min before 50-μl substrate (5 mM, […] prepared in same buffer) was added. Release of p-nitrophenyol was measured at 405 nm spectrophotometrically (Spectra Mas Plus 384, Molecular Device corporation, Sunnyvale, Calif., USA) 5 min after incubation with substrate, individual blank for test samples were prepared to correct background absorbance where the substrate was replaced with 50 μl of buffer. The control sample contained 20 μl DMSO in place of test samples. The percentage of enzyme inhibition was calculated as (A−B/A)×100 where A is represents the absorbance of the control without test samples, and B represents the absorbance in the presence of test samples. […] The IC50 values were calculated by applying logarithmic regression analysis from the mean inhibitory values.

[3] = tested on: crude intestinal α-glucosidase; test: In-vitro mammalian (rat intestinal) α-glucosidase inhibition assay; assay type: biochemical; conditions: highest concentration 5 mg/ml
Text: as §1, §2

[4] = target: T2, porcine pancreatic α-amylase (Sus scrofa, UniProt P00690); test: α-Amylase inhibition assay; assay type: biochemical; conditions: 10 mg per ml; a/b marks the respective control (Control-1 2.147, Control-2 3.429)
T2 construct: α-amylase [EC 3.2.1.1) Type VI B: from porcine pancreas]; purchased Sigma Chemical Co., St Louis, Mo., USA; host or cells: porcine pancreas (natural source)
T2 sequence (P00690 16-511): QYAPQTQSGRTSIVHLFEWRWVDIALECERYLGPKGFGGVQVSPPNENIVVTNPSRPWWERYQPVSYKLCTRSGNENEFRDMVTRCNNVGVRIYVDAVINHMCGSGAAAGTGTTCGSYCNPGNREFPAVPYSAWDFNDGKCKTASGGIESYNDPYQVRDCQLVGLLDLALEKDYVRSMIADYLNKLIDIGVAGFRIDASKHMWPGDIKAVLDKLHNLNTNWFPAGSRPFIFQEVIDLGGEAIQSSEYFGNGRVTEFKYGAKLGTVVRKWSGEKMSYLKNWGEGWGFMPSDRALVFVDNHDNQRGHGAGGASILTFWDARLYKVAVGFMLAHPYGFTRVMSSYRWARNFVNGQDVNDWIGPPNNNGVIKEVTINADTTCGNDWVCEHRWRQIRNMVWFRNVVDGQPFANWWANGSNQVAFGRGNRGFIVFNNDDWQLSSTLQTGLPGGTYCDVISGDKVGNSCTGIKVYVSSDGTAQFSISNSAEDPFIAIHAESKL
Text: as §1
a-Amylase Inhibition Assay: The assay method was adopted from Ali et al. (2006) and modified accordingly to suite microplate reading. In brief, 40 μL of test samples (10 mg/mL DMSO) were reconstituted in 160 μL of 20 mM phosphate buffer (pH 6.9) containing 6.7 mM sodium chloride in 2 mL Eppendorf tubes and incubated with 200 μL of porcine pancreatic α-amylase) (4 U/mL prepared in ice cold distilled water) for 5 min. The reaction was started by the addition of 400-μL soluble potato starch solution (0.5% w/v in 20 mM phosphate buffer, pH 6.9). Exactly 3 min after incubation, 400 μL DNS color reagent (1.0 g of 3,5-dinitrosalicylic acid, 30 g of sodium potassium tartrate and 20 mL of 2 N NaOH to a final volume of 100 mL in distilled water) was added. Closed tubes were placed in a water bath (85-90° C.) for 10 min to develop color and cooled thereafter. 50 μL of reaction mixtures was diluted with 175 μL of distilled water in a 96-well microplate. α-Amylase activity was determined by measuring the absorbance of the mixture at 540 nm spectrophotometrically as above. Individual blanks were prepared to correct for the background absorbance due to test samples. In this case DNS solution was added in tubes before addition of substrate. The percentage inhibition of enzyme activity was calculated as above. All the tests were run in duplicate in this assay.

T1 sequence (P53341 whole entry): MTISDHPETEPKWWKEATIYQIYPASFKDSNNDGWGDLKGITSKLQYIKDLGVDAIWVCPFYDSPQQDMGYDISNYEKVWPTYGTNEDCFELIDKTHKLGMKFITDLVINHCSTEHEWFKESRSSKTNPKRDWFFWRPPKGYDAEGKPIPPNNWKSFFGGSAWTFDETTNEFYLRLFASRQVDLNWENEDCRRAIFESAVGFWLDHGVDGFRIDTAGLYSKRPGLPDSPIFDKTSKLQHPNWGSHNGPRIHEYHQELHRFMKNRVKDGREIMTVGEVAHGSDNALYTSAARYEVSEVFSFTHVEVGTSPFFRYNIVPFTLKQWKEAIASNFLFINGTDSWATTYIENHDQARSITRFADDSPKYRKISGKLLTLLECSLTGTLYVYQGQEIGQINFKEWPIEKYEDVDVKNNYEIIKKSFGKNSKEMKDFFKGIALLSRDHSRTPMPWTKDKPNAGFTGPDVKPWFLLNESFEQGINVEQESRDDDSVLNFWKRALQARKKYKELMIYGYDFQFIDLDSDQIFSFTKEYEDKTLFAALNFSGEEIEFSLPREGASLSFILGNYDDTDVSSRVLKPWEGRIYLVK

Row | SMILES | % Increase in glucose, 30 min (Wistar rats [1]; 30 min after starch) [%] | Blood glucose level, 30 min (Wistar rats [1]; 30 min after starch, in mg/dL (unit assumed)) | % Increase in glucose, 60 min (Wistar rats [1]; 60 min after starch) [%] | Blood glucose level, 60 min (Wistar rats [1]; 60 min after starch, in mg/dL (unit assumed)) | % Increase in glucose, 90 min (Wistar rats [1]; 90 min after starch) [%] | Blood glucose level, 90 min (Wistar rats [1]; 90 min after starch, in mg/dL (unit assumed)) | % Increase in glucose, 120 min (Wistar rats [1]; 120 min after starch) [%] | Blood glucose level, 120 min (Wistar rats [1]; 120 min after starch, in mg/dL (unit assumed)) | Blood glucose level, 0 min (Wistar rats [1]; basal, prior to dosing, starch 2 gm/kg, in mg/dL (unit assumed)) | change in vivo at 100 mg/kg (Wistar rats [2]; read-out: % Increase in Paw Volume) [%] | inhibition in vivo at 100 mg/kg (Wistar rats [2]; read-out: % Inhibition (paw volume)) [%] | Differential count (%) Eosinophils (mice) [%] | Differential count (%) Lymphocytes (mice) [%] | Differential count (%) Monocytes (mice) [%] | Total count (mice) | Yeast α-glucosidase enzyme inhibitory activity (in words) (yeast α-glucosidase) | Mammalian α Glucosidase Inhibition (Mean ± S.E) [3] [%] | Maltose released [4] [mg/mL]
1 | C[C@H]1O[C@H](O[C@H]2[C@H](O)[C@@H](O)[C@@H](O[C@H]3[C@H](O)[C@@H](O)C(O)O[C@@H]3CO)O[C@@H]2CO)[C@H](O)[C@@H](O)[C@@H]1N[C@H]1C=C(CO)[C@@H](O)[C@H](O)[C@H]1O (stereo partly drawn) [Acarbose, reference compound] | 23.55 | 103.17 | 32.03 | 110.17 | 31.78 | 109.83 | 30.27 | 108.62 | 83.50 |  |  |  |  |  |  |  |  | 
2 | Nc1c2c(nc3sc4c(c13)CCCCC4)CCCC2 [BN-19, 2,3,4,7,8,9,10,11-Octahydro-1H-cyclohepta[4,5]thieno[2,3-b]quinolin-12-Amine] |  |  |  |  |  |  |  |  |  | 90.4 ± 11.4 | 0 | 10 | 80 | 10 | 11.5 | moderate inhibitory activity | 0.0 ± 0.0 | 3.282

— US20110269790A1, “NOVEL THIENOPYRIDINES AS PHARMACOLOGICALLY ACTIVE AGENTS” (priority 2009, published 2011)
